Measured values reported in EP0563386A1, “ANTICANCER COMPOSITION AND COMPOUND” (NIPPON SHINYAKU COMPANY, LIMITED, priority 1990, dated 1992).
Counter-ions that a name gives are not always drawn.

Experiments:
[1] = system: WiDr (human colon cancer); experiment: Tumor growth inhibition, WiDr implant in nude mice (Test Example 1); type: in vivo, BALB/c nude mice; conditions: implant volume on day 18 after transplantation divided by volume at transplantation; irsogladine maleate 10 mg/kg orally once daily from day 14; cyclophosphamide 150 mg/kg intraperitoneally once on day 14; groups of 10
Description: WiDr (human colon cancer) cells subcultured in BALB/c nude mice were dissected to prepare cubes, about 2 mm³ each. These cubes were transplanted subaxillarily into separate BALB/c nude mice using a transplantation needle. The animals were divided into groups of 10 individuals on day 10 after transplantation and the body weight and the diameter of the implant were serially determined. As the compound of this invention, irsogladine maleate, 10 mg/kg, was suspended in 0.5% methylcellulose solution and administered orally once daily beginning day 14 after transplantation. Cyclophosphamide, 150 mg/kg, was dissolved in PBS and administered intraperitoneally once on day 14 after transplantation. The control group received 0.5% methylcellulose solution orally once daily beginning day 14 after transplantation.
The volume of the implant on day 18 after transplantation was divided by the volume at trans plantation. […]
The effect of the compound of this invention as an anticancer agent is clear.

Meth A fibrosarcoma = Meth A fibrosarcoma tumor volume in mice (Test Example 2); type: in vivo, BALB/c mice
Description: • (1) The homologus tumor Meth A fibrosarcoma subcultured (ascites type) in BALB/c mice, 5 x 10^5 cells, was transplanted subcutaneously at the flank of 6-week-old male BALB/c mice. Mice having a tumor volume of 70-100 mm³ were selected and divided into groups of 9. Oral single daily administration of the test compound was started and the body weight and tumor volume were serially determined. The volume was determined using the same calculation formula as shown in Test Example 1. The compound of the invention irsogladine maleate, 10 mg/kg, suspended in 0.5% methylcellulose maleate and 5-fluorouracil, 15 mg/kg, dissolved in 0.5% methylcellulose solution were respectively administered orally. The control group received 0.5% methylcellulose solution orally. […] The effect of the com pound of this invention as an anticancer agent is, thus, clear. • (2) As in the above test, mice having a tumor volume of 160-180 mm³ were selected and subjected to the same test as above. The compound of this invention irsogladine maleate, 10 mg/kg, 5-flurorouracil, 30 mg/kg, or as a combination therapy, irsogladine maleate, 10 mg/kg, plus 5-fluorouracil, 30 mg/kg, were administered orally. The control group received the same control material as in the above test orally. […] The anticancer adjuvant activity of the compound of this invention to 5-FU is clear.
The open circle stands for control, the open triangle for 5-FU and the closed circle for the compound of the invention. The tumor volume (mm³) is plotted on the vertical axis and the number of days after drug administration on the horizontal axis.
The open circle stands for control, the open triangle for F-5U, the closed circle for the compound of the invention, the open square for the combination therapy. The tumor volume (mm³) is plotted on the vertical axis and the number of days after drug administration on the horizontal axis.

cancer patients [2] = experiment: Clinical use with radiotherapy and chemotherapy, 45 cancer cases (Test Example 7); type: in vivo
Description: Predetermined radiotherapy [each proven focus was irradiated with cobalt 60 gamma rays, about 28 Gy, in simply divided doses at intervals of several days and oily bleomycin was administered intramuscularly in a dose range of 0.5-3 mg/day (a total of not more than 50 mg) 30 minutes before and 30 minutes after each irradiation] was given to the following cancer patients and concomitantly the following prescription was given orally.

cancer patients [3] = experiment: Clinical use with radiotherapy and chemotherapy, 39 case reports (Test Example 8); type: in vivo
Description: Predetermined radiotherapy [each proven focus was irradiated with cobalt 60 gamma rays, […], in simply divided doses at intervals of several days and oily bleomycin was administered intramuscularly in a dose range of 0.5-3 mg/day (a total of not more than 50 mg) 30 minutes before and 30 minutes after each irradiation] was given to the following cancer patients and concomitantly the following prescription was given orally.
Following Test Example 7, the clinical effect was investigated. Radiotherapy, chemotherapy and administration of irsogladine maleate were performed in the same manner as in Test Example 7.

**Q.** For `Nc1nc(N)nc(-c2cc(Cl)ccc2Cl)n1` [irsogladine maleate], which Tumor volume ratio [1] is on record?
**A.** 1.52 ± 0.08

**Q.** What about the “tumor volume (effect versus 5-FU)” value (Meth A fibrosarcoma; Test (1): start tumor volume 70-100 mm³, irsogladine maleate 10 mg/kg orally once daily, comparator 5-fluorouracil 15 mg/kg orally, Fig. 1) of the same compound?
**A.** effect comparable to that of 5-FU, 15 mg/kg

**Q.** What about the “tumor-inhibitory effect, single drug” value (Meth A fibrosarcoma; Test (2): start tumor volume 160-180 mm³, irsogladine maleate 10 mg/kg or 5-fluorouracil 30 mg/kg orally, Fig. 2) of the same compound?
**A.** tumor-inhibitory effect

**Q.** What about the “tumor-inhibitory effect, combination therapy” value (Meth A fibrosarcoma; Test (2): start tumor volume 160-180 mm³, irsogladine maleate 10 mg/kg plus 5-fluorouracil 30 mg/kg orally, Fig. 2) of the same compound?
**A.** more remarkable

**Q.** What about the “disappearance of tumor by palpation or diagnostic imaging” value (cancer patients [2]; 11 cases of breast cancer, 4 weeks after initiation, 2 mg/day x 2 orally with radiotherapy and chemotherapy) of the same compound?
**A.** disappearance of tumor was confirmed

**Q.** And the “disappearance of tumor by palpation or diagnostic imaging” value (cancer patients [2]; 13 cases of pharyngeal cancer and cancer of upper esophagus, 4 weeks after initiation, 2 mg/day x 2 orally with radiotherapy and chemotherapy)?
**A.** disappearance of tumor was confirmed

**Q.** And the “cases with disappearance of tumor confirmed by palpation or diagnostic imaging” value (cancer patients [2]; all 45 cases of Test Example 7)?
**A.** 45 cases

**Q.** What about the “disappearance of tumor by palpation or diagnostic imaging” value (cancer patients [2]; five cases of rectal cancer, 4 weeks after initiation, 2 mg/day x 2 orally with radiotherapy and chemotherapy) of the same compound?
**A.** disappearance of tumor was confirmed

**Q.** What about the “disappearance of tumor by palpation or diagnostic imaging” value (cancer patients [2]; nine cases of maxillary cancer and epipharyngeal cancer, 4 weeks after initiation, 2 mg/day x 2 orally with radiotherapy, bleomycin, carmofur, doxifluridine, tegafur) of the same compound?
**A.** disappearance of tumor was confirmed

**Q.** And the “cases with disappearance of tumor histologically verified by biopsy” value (cancer patients [2]; of the 45 cases of Test Example 7)?
**A.** 14 cases

**Q.** What about the “disappearance of tumor by diagnostic imaging” value (cancer patients [2]; one case of stomach cancer, 4 weeks after initiation, 2 mg/day x 2 orally with radiotherapy and chemotherapy) of the same compound?
**A.** disappearance of tumor was confirmed

**Q.** And the “disappearance of tumor by palpation or diagnostic imaging” value (cancer patients [2]; six cases of bladder cancer, renal cancer, ovarian cancer, etc., 4 weeks after initiation, 2 mg/day x 2 orally with radiotherapy and chemotherapy)?
**A.** disappearance of tumor was confirmed

**Q.** And the clinical outcome (cancer patients [3]; (1) case (1): person, SCC of the pharynx metastasized to the right neck, about 15 days, with irradiation and chemotherapy)?
**A.** complete resoltuion of the tumor

**Q.** And the clinical outcome (cancer patients [3]; (1) case (2): person, SCC of the pharynx metastasized to the left neck, with radiotherapy and chemotherapy)?
**A.** complete resolution of the tumor

**Q.** And the clinical outcome (cancer patients [3]; (1) case (3): person, pharyngeal cancer with lymph node and lung metastasis, with radiotherapy and chemotherapy)?
**A.** complete resolution of the tumor

**Q.** And the clinical outcome (cancer patients [3]; (1) case (4): person, SCC of the anterior association of the vocal cord, pharyngeal cancer, with radiotherapy and chemotherapy)?
**A.** complete resolution of the tumor

**Q.** And the clinical outcome (cancer patients [3]; (1) case (5): person, SCC of the pharynx, metastasis to the mediastinum, with radiotherapy and chemotherapy)?
**A.** complete resolution of the tumor

**Q.** What about the clinical outcome (cancer patients [3]; (1) case (6): person, tumor in the anterior association of the vocal cord, with radiotherapy and chemotherapy) of the same compound?
**A.** partial resolution of the tumor

**Q.** What about the clinical outcome (cancer patients [3]; (1) case (7): person, SCC of the pharynx, with radiotherapy and chemotherapy) of the same compound?
**A.** complete resolution of the tumor

**Q.** What about the clinical outcome (cancer patients [3]; (2) case (1): person, TCC of the ureter, after resection, with radiotherapy and chemotherapy) of the same compound?
**A.** complete resolution of the tumor

**Q.** And the clinical outcome (cancer patients [3]; (2) case (2): person, TCC of the ureter, relapsed, with radiotherapy and chemotherapy)?
**A.** partial resolution of the tumor

**Q.** And the clinical outcome (cancer patients [3]; (3) case (1): person, SCC of the tongue, metastasis to the left neck, with radiotherapy and chemotherapy)?
**A.** complete resolution of the tumor

**Q.** And the clinical outcome (cancer patients [3]; (3) case (2): person, SCC of the tongue with metastasis to the left neck, with radiotherapy and chemotherapy)?
**A.** complete resolution of the tumor

**Q.** What about the clinical outcome (cancer patients [3]; (4) case (1): person, recurrent breast cancer with bone metastasis, with radiotherapy and chemotherapy) of the same compound?
**A.** died of injury of cervical vertebra and paraplegia

**Q.** What about the clinical outcome (cancer patients [3]; (4) case (2): person, recurrent breast cancer, invasive duct carcinoma, with radiotherapy and chemotherapy) of the same compound?
**A.** complete resolution of the tumor

**Q.** What about the clinical outcome (cancer patients [3]; (5) case (1): person, breast cancer (first on-set), 3 months, with radiotherapy, chemotherapy and resection) of the same compound?
**A.** complete resolution of the tumor

**Q.** And the clinical outcome (cancer patients [3]; (6) case (1): person, SCC of the epipharynx, metastases to lung and lumbar vertebra, with radiotherapy and chemotherapy)?
**A.** partial resolution of the tumor

**Q.** What about the clinical outcome (cancer patients [3]; (6) case (2): person, SCC of epipharynx with metastasis to the right neck, with radiotherapy and chemotherapy) of the same compound?
**A.** complete resolution of the tumor

**Q.** What about the clinical outcome (cancer patients [3]; (6) case (3): person, pulmonary metastasis from epipharynx SCC, with radiotherapy and chemotherapy, patient later died after mixed infection) of the same compound?
**A.** tumor disappeared

**Q.** And the clinical outcome (cancer patients [3]; (6) case (4): person, maxillary/epipharyngeal cancer group, with irradiation and chemotherapy)?
**A.** partially resolved

**Q.** What about the clinical outcome (cancer patients [3]; (7) case (1): person, tumor of the right anterior ear, SCC of parotid gland, with radiation therapy and chemotherapeutic agents) of the same compound?
**A.** tumor disappeared

**Q.** And the clinical outcome (cancer patients [3]; (7) case (2): person, SCC of the right external auditory canal, with radiotherapy, chemotherapy and resection)?
**A.** complete resolution

**Q.** What about the clinical outcome (cancer patients [3]; (7) case (3): person, SCC relapsed in the left anterior ear, with radiotherapy, chemotherapy and resection) of the same compound?
**A.** completely disappeared

**Q.** And the clinical outcome (cancer patients [3]; (8) case (1): person, metastatic lung cancer, primary rectal cancer, dotted shadow of right lower lung field, with radiotherapy and chemotherapy)?
**A.** reduced to 1/4

**Q.** What about the clinical outcome (cancer patients [3]; (8) case (2): person, metastatic lung cancer, primary hypopharynx cancer, with radiotherapy and chemotherapy) of the same compound?
**A.** disappeared completely

**Q.** What about the clinical outcome (cancer patients [3]; (8) case (3): person, metastatic lung cancer, primary esophageal cancer (upper), with radiotherapy and chemotherapy) of the same compound?
**A.** disappeared completely

**Q.** And the clinical outcome (cancer patients [3]; (8) case (4): person, primary pharyngeal cancer, metastases to hili of the lung, with radiotherapy and chemotherapy)?
**A.** the enlargement of the pharynx and of the hili of the lung disappeared

**Q.** What about the clinical outcome (cancer patients [3]; (8) case (5): person, primary pancreatic carcinoma, pulmonary metastasis, with radiotherapy and chemotherapy) of the same compound?
**A.** disappeared completely

**Q.** And the clinical outcome (cancer patients [3]; (8) case (6): person, primary colon cancer, pulmonary metastasis, with radiotherapy and chemotherapy)?
**A.** Partial resolution

**Q.** And the clinical outcome (cancer patients [3]; (9) case (1): person, recurrent ovarian cancer, with chemotherapeutic agents)?
**A.** remained unchanged

**Q.** What about the clinical outcome (cancer patients [3]; (9) case (2): person, ovarian cancer, metastases to Virchow's nodes, abdominal tumor, with radiotherapy and chemotherapy) of the same compound?
**A.** disappeared completely

**Q.** What about the clinical outcome (cancer patients [3]; (9) case (3): person, uterine cancer, SCC, with radiation therapy (40 Gy) and chemotherapy) of the same compound?
**A.** partial resolution of the tumor

**Q.** What about the clinical outcome (cancer patients [3]; (9) case (4): person, stomach cancer with ascites, after resection, with irradiation and chemotherapy) of the same compound?
**A.** died of DIC

**Q.** And the clinical outcome (cancer patients [3]; (10) case (1): person, colorectal cancer, tubular ADC, with radiotherapy and chemotherapy)?
**A.** died of mixed infection

**Q.** And the clinical outcome (cancer patients [3]; (10) case (2): person, colorectal cancer with pulmonary and nodal metastasis, ascites, with radiotherapy and chemotherapy)?
**A.** ascites were reduced and the patient became ambulant

**Q.** And the clinical outcome (cancer patients [3]; (10) case (3): person, tumor of the right hypogastrium, CK and ADC, with radiotherapy and chemotherapy)?
**A.** ascites were removed

**Q.** What about the clinical outcome (cancer patients [3]; (11) case (1): person, liposarcoma of the left chest wall with metastasis to the right mediastinum, with radiotherapy and chemotherapy) of the same compound?
**A.** Partial resolution

**Q.** And the clinical outcome (cancer patients [3]; (11) case (2): person, pelvic chondrosarcoma, treatment from November 1990 with radiotherapy and chemotherapy)?
**A.** living as of February 1991

**Q.** What about the clinical outcome (cancer patients [3]; (11) case (3): person, chondrosarcoma of the right leg, pulmonary metastasis, with radiotherapy and chemotherapy) of the same compound?
**A.** Pain was relieved

**Q.** And the clinical outcome (cancer patients [3]; (11) case (4): person, malignant lymphoma, tumor 4 x 4 cm at start, with radiotherapy and chemotherapy)?
**A.** Complete resolution

**Q.** What about the clinical outcome (cancer patients [3]; (11) case (5): person, malignant multiple schwannoma vertebrae, with radiotherapy and chemotherapy) of the same compound?
**A.** paralysis of limbs was found

**Q.** What about the patients who died (cancer patients [3]; of the 39 patients of Test Example 8) of the same compound?
**A.** four

**Q.** What about the “complete or partial resolution, overall” value (cancer patients [3]; summary of the 39 patients of Test Example 8) of the same compound?
**A.** no patients in whom complete or partial resolution was not obtained
